Patent US20240024301A1, “METHODS OF TREATING HEAD AND NECK SQUAMOUS CELL CARCINOMA” (Kura Oncology, Inc., priority 2022, published 2024)

Assays:
BICR22 cells = experiment: Immunoblots of MAPK/PI3K pathway components and apoptotic markers; type: cell-based; conditions: BICR22 (PIK3CA copy gain); alpelisib 0, 1, 24 hours, absence or presence of tipifarnib (48-hour treatment)
Method: (§1) Immunoblots of MAPK/PI3K pathway components and apoptotic markers in PIK3CA-mutant CAL33 cells treated with alpelisib (BYL-719) for 0, 1, 2, 6, and 24 hours in the absence or presence of tipifarnib (48-hour treatment) are shown in FIG. 2A. A shift in Rheb and HRas protein mobility is indicative of defarnesylation. Generally, immunoblotting was performed as follows: Cell lysates were prepared on ice by washing cells once with PBS, resuspending in 1× cell lysis buffer (Cell Signaling Technology #9803) or RIPA buffer supplemented with Halt protease inhibitor cocktail (Thermo Scientific #78430) and briefly sonicated or vortexed. Lysates were cleared by centrifugation (maximum speed, 10 min) and protein concentration was determined by BCA assay (Pierce). Lysate (20-60 μg) was loaded onto 4-12% Bis-Tris gels (NuPAGE, Invitrogen) for electrophoresis and immunoblotting. When RAS was evaluated, active RAS was detected using Thermo Scientific kit #16117. Membrane and cytosolic fractions were isolated using the Mem-PER Plus Membrane Protein Extraction Kit (Thermo Scientific kit #89842).
(§2) Immunoblots of MAPK/PI3K pathway components and apoptotic markers in high HRas protein (i.e., overexpression of wild-type HRas protein) HNSCC cell line SCC9 cells and in PIK3CA copy gain (amplified) BICR22 cells are shown in FIG. 2B and FIG. 2D, respectively. […]

SCC9 cells = experiment: as above; type: cell-based; conditions: SCC9 (HRas high); alpelisib 0, 1, 24 hours, absence or presence of tipifarnib (48-hour treatment)
Method: as §1, §2

[1] = test system: PIK3CA-mutant CAL33 tumors; experiment: Immunoblot and immunohistochemistry of treated CAL33 xenograft tumors; type: in vivo, athymic mice; conditions: tipifarnib 60 mg/kg BID, 10 days
Method: To assess the underlying mechanism of tumor regression, the PIK3CA-mutant CAL33 tumors were treated with tipifarnib (60 mg/kg BID), alpelisib (40 mg/kg QD), or the combination for 10 days. On day 10, tumors were collected from all cohorts at 2 and 24 hours after the final dose of alpelisib for immunohistochemistry and immunoblot analysis. […] Addition of tipifarnib blocked this rebound and promoted cell cycle arrest as indicated by decreased Rb phosphorylation.

[2] = test system: PIK3CA-mutant CAL33 cells; experiment: Immunoblots of MAPK/PI3K pathway components and apoptotic markers; type: cell-based; conditions: alpelisib 0, 1, 2, 6, 24 hours, absence or presence of tipifarnib (48-hour treatment)
Method: as §1
However, by 24 hours, phosphorylation of these proteins partially or completely rebounded. […]

CAL33 xenograft tumors = experiment: Immunohistochemistry of CAL33 CDX tumor samples; type: in vivo, mice; conditions: alpelisib 40 mg/kg QD, tipifarnib 60 mg/kg BID, or the combination, 10 days
Method: CAL33 xenograft tumors treated with alpelisib (40 mg/kg QD), tipifarnib (60 mg/kg BID), or the combination, for 10 days were subjected to immunohistochemistry analysis to assess levels of cell proliferation and apoptosis.
Fixation of tumor samples was performed by zinc formalin (Z-Fix, Anatech) and tissues were paraffin-embedded; samples were sectioned into 5 μm sections. Samples were deparaffinized, hydrated with graded ethanols, and the endogenous peroxidase was blocked with 3% H2O2 in 70% ethanol. After washing with distilled water, antigen retrieval was performed with IHC antigen retrieval solution (ThermoFisher Scientific, #00-4955-58) in a microwave at the high setting. Slides were then washed with water and PBS, and incubated with the primary and secondary antibodies, and developed with the ABC reagent (Vector Laboratories, #PK-6100) and the DAB substrate kit (Vector Laboratories, #SK-4105). The following antibodies were used: Cleaved PARP (Cell Signaling Technology #9661, 1:400 dilution) and Ki67 (DACO #M7240, 1:50). Percent positive cells in three fields per slide were counted using a microscope.

HSC2 (H1047R) = experiment: PI3K-mTOR signaling by immunoblot; type: cell-based; conditions: 1 h and 24 h
Method: PI3K-mTOR Signaling in PIK3CA-mutant HSC2 Cell Line. The PIK3CA-mutant HNSCC cell line HSC2 (H1047R) was treated with the tipifarnib-alpelisib combination and mTOR activity was assessed by immunoblot.

Rheb protein = experiment: Lysosome extraction by density gradient ultracentrifugation and immunoblot; type: cell-based; conditions: CAL33 cells, versus DMSO
From the text: Active Rheb protein is thought to localize to lysosomes to regulate mTOR activity. Density gradient ultracentrifugation was utilized to extract lysosomes from CAL33 cells treated with DMSO or tipifarnib. Lysosomes were lysed and subjected to immunoblot analysis alongside whole-cell lysate (WCL), FIG. 4. LAMP1 is a lysosome-specific marker and is used in this assay.

[3] = target: geranylgeranyltransferase type 1 (Homo sapiens, UniProt P53609); conditions: cited from earlier work
[4] = test system: cell lines harboring PIK3CA mutation or amplification; experiment: Growth of PIK3CA-altered HNSCC cell lines, monolayer and spheroid cultures; type: cell-based
Method: (§3) Because a farnesyltransferase inhibitor may block hyperactivated growth factor signaling at multiple nodes, including HRas protein and Rheb protein, the impact of tipifarnib on the growth of PIK3CA-altered HNSCC models and HRAS-mutant HNSCC models in vitro and in vivo was examined. For tumor spheroid growth assays, cells were resuspended in 4% Matrigel and seeded in 96-well ultralow attachment plates at a density of 1-1.5K cells/well. The following day, spheroids were treated with alpelisib and/or tipifarnib and baseline growth measured using 3D Cell Titer Glo reagent (Promega). Spheroids were incubated with drug for 7 days and a final CTG reading taken. Percentage growth was calculated by[(Ti−Tz)/(C−Tz)]×100 for concentrations for which Ti>/=Tz and [(Ti−Tz)/Tz]×100 for concentrations for which Ti<Tz, where Tz=time zero, C=control growth, and Ti=test growth at each drug concentration. […] Consistently, in PIK3CA mutant/amplified PDX models, the tipifarnib-alpelisib doublet led to deeper antitumor responses compared to alpelisib monotherapy.

HRAS and RHEB = experiment: Subcellular fractionation and immunoblot of cytosol and membrane fractions; type: cell-based; conditions: CAL33, BICR22, and SCC9 cells; 1 μM tipifarnib (48 hr)
Method: as §1
CAL33, BICR22, and SCC9 cells were treated with DMSO, 250 nM alpelisib (24 hr), 1 μM tipifarnib (48 hr), or the combination.

UM-SCC-17B (Q61L) = experiment: HRAS-mutant cell line spheroid growth, checkerboard, 7 days; type: cell-based
Method: as §3
Inhibition of HRAS-mutant cell line spheroid growth by tipifarnib and/or alpelisib. The HRAS-mutant HNSCC cell line UM-SCC-17B (Q61L) was cultured as 3D tumor spheroids and treated with tipifarnib and/or alpelisib in a checkerboard dose-response fashion for 7 days.

SMILES	Pathway activity, cell cycle and apoptotic markers (immunoblot) (BICR22 cells)	Pathway activity, cell cycle and apoptotic markers (immunoblot) (SCC9 cells)	mTOR activity (4EBP1, S6 phosphorylation) ([1]; alpelisib 40 mg/kg QD, tumors collected 2 and 24 hours after final alpelisib dose)	Pathway activity, cell cycle and apoptotic markers (immunoblot) [2]	Cleaved PARP (% positive cells) (CAL33 xenograft tumors)	Ki67 (% positive cells) (CAL33 xenograft tumors)	mTOR activity (phospho-S6K and S6) and PARP cleavage (HSC2 (H1047R))	Lysosomal localization of Rheb protein (Rheb protein)	Farnesylation of HRAS and RHEB (immunoblot) [1]	Inhibition of geranylgeranyltransferase type 1 [3]	Proliferation / cytotoxicity [4]	Membrane localization of HRAS and RHEB (HRAS and RHEB)	Cytotoxicity in 3D tumor spheroids (UM-SCC-17B (Q61L))
Cc1nc(NC(=O)N2CCC[C@H]2C(N)=O)sc1-c1ccnc(C(C)(C)C(F)(F)F)c1 [Alpelisib, (2S)—N^1-[4-Methyl-5-[2-(2,2,2-trifluoro-1,1-dimethylethyl)-4-pyridinyl]-2-thiazolyl]-1,2-pyrrolidinedicarboxamide]	transiently reduced	transiently reduced	transiently inhibited mTOR activity	rapidly inhibited the activity of AKT, mTOR, and ERK	5.1 ± 0.4 % positive cells	53.7 ± 9.8 % positive cells	transiently inhibited						
Cn1cncc1[C@@](N)(c1ccc(Cl)cc1)c1ccc2c(c1)c(-c1cccc(Cl)c1)cc(=O)n2C [Tipifarnib, (R)-6-[amino(4-chlorophenyl)(1-methyl-1H-imidazol-5-yl)methyl]-4-(3-chlorophenyl)-1-methyl-2(1H)-quinolinone]					4.9 ± 2.1 % positive cells	35.1 ± 8.1 % positive cells		markedly diminished the lysosomal localization of Rheb protein	resulted in defarnesylation of HRAS and RHEB	not an inhibitor of geranylgeranyltransferase type 1	reduced proliferation of both monolayer and spheroid cultures	resulted in the membrane delocalization of the majority of HRAS and RHEB in all three cell types	induced cytotoxicity
